# Results as given in US20240358692A1, “TREATMENT OF SCLERODERMA” (Aisa Pharma, Inc., priority 2023, published 2024).
# System: participants with SSc-RP
# Assay: SHAQ - Visual Analog Scale - Pain
# Format: in vivo, human
# Conditions: for % change in Pain: SHAQ, mITT Part A
# Source text: The standard, validated, patient reported outcome measures tool for SSc patients, the Scleroderma Health Assessment Questionnaire (SHAQ), will be used to assess the participant qualify of life. Details are attached in the Appendix. The participant quality of life will be scored, and a disability index calculated for each questionnaire completed by the patient at Screening and each in-clinic visit. The absolute change in participant quality of life from baseline to the end of each dosing period will be calculated similar to frequency data as before.
# The standard, validated, patient reported outcome measures tool for SSc patients, the SHAQ, was collected at the time points specified in the study schedules (FIG. 2 and FIGS. 4A and 4B) to assess the participant's quality of life. The SHAQ included a Raynaud's VAS that will also be reported separately.
# Pain on the SHAQ outcome measure on the first line in table F is a composite of all pain experienced in patients with SSc, comprising joint pain, back pain, headache, odynophagia, skin ulcer related discomfort, Raynaud's, and neuropathic pain. Aisa Pharma believes, based on the biologic attributes and actions of cilnidipine that differ from most dihydropyridine calcium channel antagonists that cilnidipine might have direct analgesic effects in certain pain conditions and in fact has been designated to receive evaluation through the […] Preclinical Pain Screening Platform Program to investigate the drug in multiple in vitro and in vivo preclinical models of pain that are validated and predictive of effects in man.
# [1] = Any Cilnidipine (N = 17), Day 12, PP Population, Part A
# [2] = Cilnidipine 10 mg, SSc patients, PP, Part A
# [3] = Cilnidipine 20 mg, SSc patients, PP, Part A
# [4] = Modified ITT Population-Part A, Day 12, dose cilnidipine 10 mg, tadalafil 5 mg, alone or combined as labelled
# [5] = Modified ITT Population-Part A, Day 12, dose cilnidipine 20 mg, tadalafil 5 mg, alone or combined as labelled
# [6] = Pooled Cilnidipine (N = 8), Day 12, PP Population, Part A
# [7] = pooled Cilnidipine 10 mg and Cilnidipine 10 mg + Tadalafil 5 mg
# [8] = pooled Cilnidipine 20 mg and Cilnidipine 20 mg + Tadalafil 5 mg
# [9] = pooled cilnidipine 10 mg and 20 mg arms (combination: + tadalafil 5 mg)
smiles,measurement,setting,value
COCCOC(=O)C1=C(C)NC(C)=C(C(=O)OC/C=C/c2ccccc2)C1c1cccc([N+](=O)[O-])c1 (stereo not shown) [Cilnidipine],"SHAQ Visual Analogue Scale - Pain, Change from Baseline, Mean (SD)",[1],−0.575 (1.0318)
same,"SHAQ Visual Analogue Scale - Pain, Change from Baseline, Median",[1],−0.600
same,"SHAQ Visual Analogue Scale - Pain, In-Clinic Visit (Day 12), Mean (SD)",[1],2.476 (1.7312)
same,"SHAQ Visual Analogue Scale - Pain, In-Clinic Visit (Day 12), Median",[1],2.200
same,"SHAQ Visual Analogue Scale - Pain, Percent Change from Baseline, Mean (SD)",[1],−22.77 (31.937) %
same,"SHAQ Visual Analogue Scale - Pain, Percent Change from Baseline, Median",[1],−22.58%
same,"SHAQ VAS Pain, Change from Baseline, Max",[2],0.30
same,"SHAQ VAS Pain, Change from Baseline, Mean",[2],−0.100
same,"SHAQ VAS Pain, Change from Baseline, Median",[2],0.000
same,"SHAQ VAS Pain, Change from Baseline, Min",[2],"−0.70,"
same,"SHAQ VAS Pain, Change from Baseline, Q1",[2],"−0.350,"
same,"SHAQ VAS Pain, Change from Baseline, Q3",[2],0.150
same,"SHAQ VAS Pain, Day 12, Max",[2],3.60
same,"SHAQ VAS Pain, Day 12, Mean",[2],1.875
same,"SHAQ VAS Pain, Day 12, Median",[2],1.950
same,"SHAQ VAS Pain, Day 12, Min",[2],"0.00,"
same,"SHAQ VAS Pain, Day 12, Q1",[2],"0.500,"
same,"SHAQ VAS Pain, Day 12, Q3",[2],3.250
same,"SHAQ VAS Pain, Percent Change from Baseline, Max",[2],11.5
same,"SHAQ VAS Pain, Percent Change from Baseline, Mean",[2],−9.88
same,"SHAQ VAS Pain, Percent Change from Baseline, Median",[2],0.00
same,"SHAQ VAS Pain, Percent Change from Baseline, Min",[2],"−41.2,"
same,"SHAQ VAS Pain, Percent Change from Baseline, Q1",[2],"−41.18,"
same,"SHAQ VAS Pain, Percent Change from Baseline, Q3",[2],11.54
same,% change in Pain,Cilnidipine 20 mg (n = 3),−53%
same,"SHAQ VAS Pain, Change from Baseline, Max",[3],0.70
same,"SHAQ VAS Pain, Change from Baseline, Mean",[3],−0.650
same,"SHAQ VAS Pain, Change from Baseline, Min",[3],"−2.00,"
same,"SHAQ VAS Pain, Change from Baseline, Q1",[3],"−1.400,"
same,"SHAQ VAS Pain, Change from Baseline, Q3",[3],0.100
same,"SHAQ VAS Pain, Day 12, Max",[3],4.30
same,"SHAQ VAS Pain, Day 12, Mean",[3],1.875
same,"SHAQ VAS Pain, Day 12, Median",[3],1.400
same,"SHAQ VAS Pain, Day 12, Min",[3],"0.40,"
same,"SHAQ VAS Pain, Day 12, Q1",[3],"0.550,"
same,"SHAQ VAS Pain, Day 12, Q3",[3],3.200
same,"SHAQ VAS Pain, Percent Change from Baseline, Mean",[3],−34.56
same,"SHAQ VAS Pain, Percent Change from Baseline, Min",[3],"−55.6,"
same,"SHAQ VAS Pain, Percent Change from Baseline, Q1",[3],"−54.44,"
same,"SHAQ VAS Pain, Percent Change from Baseline, Q3",[3],−14.67
same,"Visual Analog Scale-Pain, Change from Baseline, Mean",[4],−0.100
same,"Visual Analog Scale-Pain, Change from Baseline, Median",[4],0.000
same,"Visual Analog Scale-Pain, Percent Change from Baseline, Median",[4],0.00%
same,"Visual Analog Scale-Pain, Change from Baseline, Mean",[5],−1.100
same,"Visual Analog Scale-Pain, Change from Baseline, Median",[5],−0.800
same,"Visual Analog Scale-Pain, In Clinic Visit (Day 12), Median","Modified ITT Population-Part A, dose cilnidipine 20 mg, tadalafil 5 mg, alone or combined as labelled",0.700
same,"SHAQ Visual Analogue Scale - Pain, In-Clinic Visit (Day 12), Median","Pooled Cilnidipine 10 mg and Cilnidipine 10 mg + Tadalafil 5 mg (N = 9), Day 12, PP Population, Part A",2.900
same,"SHAQ Visual Analogue Scale - Pain, In-Clinic Visit (Day 12), Median","Pooled Cilnidipine 20 mg and Cilnidipine 20 mg + Tadalafil 5 mg (N = 8), Day 12, PP Population, Part A",2.100
same,"SHAQ Visual Analogue Scale - Pain, Change from Baseline, Mean (SD)",[6],−0.375 (0.8311)
same,"SHAQ Visual Analogue Scale - Pain, In-Clinic Visit (Day 12), Mean (SD)",[6],1.875 (1.5944)
same,"SHAQ Visual Analogue Scale - Pain, Percent Change from Baseline, Mean (SD)",[6],−23.98 (32.893) %
same,% change in Pain,Pooled Cilnidipine (n = 7),−31%
same,"% Δ from baseline, VAS Pain median",Pooled cilnidipine (n=6),−45%
same,SHAQ VAS-Pain (change),cilnidipine 20 mg,−1.1
same,VAS Pain Change from Baseline Max,[7],0.60
same,VAS Pain Change from Baseline Mean,[7],−0.633
same,VAS Pain Change from Baseline Median,[7],−0.700
same,VAS Pain Change from Baseline Min,[7],"−2.80,"
same,VAS Pain Change from Baseline Q1,[7],"−1.100,"
same,VAS Pain Change from Baseline Q3,[7],0.000
same,VAS Pain Day 12 Max,[7],5.50
same,VAS Pain Day 12 Median,[7],2.900
same,VAS Pain Day 12 Min,[7],"0.00,"
same,VAS Pain Day 12 Q1,[7],"1.000,"
same,VAS Pain Day 12 Q3,[7],3.800
same,VAS Pain Percent Change from Baseline Max,[7],18.8%
same,VAS Pain Percent Change from Baseline Mean,[7],−20.07%
same,VAS Pain Percent Change from Baseline Median,[7],−21.87%
same,VAS Pain Percent Change from Baseline Min,[7],"−72.2, %"
same,VAS Pain Percent Change from Baseline Q1,[7],"−37.46, %"
same,VAS Pain Percent Change from Baseline Q3,[7],5.77%
same,VAS Pain Change from Baseline Max,[8],0.90
same,VAS Pain Change from Baseline Mean,[8],−0.700
same,VAS Pain Change from Baseline Median,[8],−0.650
same,VAS Pain Change from Baseline Min,[8],"−2.00,"
same,VAS Pain Change from Baseline Q1,[8],"−1.700,"
same,VAS Pain Change from Baseline Q3,[8],−0.100
same,VAS Pain Day 12 Max,[8],5.30
same,VAS Pain Day 12 Mean,[8],2.000
same,VAS Pain Day 12 Median,[8],2.100
same,VAS Pain Day 12 Min,[8],"0.40,"
same,VAS Pain Day 12 Q1,[8],"0.700,"
same,VAS Pain Day 12 Q3,[8],2.200
same,VAS Pain Percent Change from Baseline Max,[8],20.5%
same,VAS Pain Percent Change from Baseline Median,[8],−51.06%
same,VAS Pain Percent Change from Baseline Min,[8],"−58.6, %"
same,VAS Pain Percent Change from Baseline Q1,[8],"−55.56, %"
same,VAS Pain Percent Change from Baseline Q3,[8],−4.55%
same,VAS Pain Change from Baseline Max,[9],0.30
same,VAS Pain Change from Baseline Median,[9],−0.500
same,VAS Pain Change from Baseline Min,[9],"−2.00,"
same,VAS Pain Change from Baseline Q1,[9],"−0.800,"
same,VAS Pain Change from Baseline Q3,[9],0.000
same,VAS Pain Day 12 Max,[9],3.60
same,VAS Pain Day 12 Median,[9],1.000
same,VAS Pain Day 12 Min,[9],"0.00,"
same,VAS Pain Day 12 Q1,[9],"0.400,"
same,VAS Pain Day 12 Q3,[9],2.900
same,VAS Pain Percent Change from Baseline Max,[9],11.5%
same,VAS Pain Percent Change from Baseline Min,[9],"−55.6, %"
